Measurements as given in ChEMBL document CHEMBL4414615, “Sparticolins A-G, Biologically Active Oxidized Spirodioxynaphthalene Derivatives from the Ascomycete Sparticola junci” (J Nat Prod, 2019).
≈ marks a conversion by molar mass, not a printed value. Calls of active or inactive are those of the source. The calls are words filed in the database; no cut-off is given here.

Experiments:
[1] = system: Micrococcus luteus; assay: Antibacterial activity against Micrococcus luteus DSM 1790 at 66 ug/ml incubated for 24 hrs by broth microdilution method; type: functional, organism-based
[2] = system: A-431; assay: Cytotoxicity against human A431 cells assessed as reduction in cell growth incubated for 5 days by MTT assay; type: functional, cell-based
[3] = system: Staphylococcus aureus; assay: Antibacterial activity against Staphylococcus aureus DSM 346 incubated for 24 hrs by broth microdilution method; type: functional; details: DSM 346, 24 h
[4] = system: Schizosaccharomyces pombe; assay: Antifungal activity against Schizosaccharomyces pombe DSM 70572 at 66 ug/ml incubated for 48 hrs by broth microdilution method; type: functional, organism-based
[5] = system: Bacillus subtilis; assay: Antibacterial activity against Bacillus subtilis DSM 10 at 66 ug/ml incubated for 24 hrs by broth microdilution method; type: functional, organism-based
[6] = system: A549; assay: Cytotoxicity against human A549 cells assessed as reduction in cell growth incubated for 5 days by MTT assay; type: functional, cell-based
[7] = system: PC-3; assay: Cytotoxicity against human PC3 cells assessed as reduction in cell growth incubated for 5 days by MTT assay; type: functional, cell-based
[8] = system: Pseudomonas aeruginosa; assay: Antibacterial activity against Pseudomonas aeruginosa DSM PA14 at 66 ug/ml incubated for 24 hrs by broth microdilution method; type: functional, organism-based
[9] = system: Rhodotorula glutinis; assay: Antifungal activity against Rhodotorula glutinis DSM 10134 at 66 ug/ml incubated for 48 hrs by broth microdilution method; type: functional, organism-based
[10] = system: SK-OV-3; assay: Cytotoxicity against human SKOV3 cells assessed as reduction in cell growth incubated for 5 days by MTT assay; type: functional, cell-based
[11] = system: Chromobacterium violaceum; assay: Antibacterial activity against Chromobacterium violaceum DSM 30191 at 66 ug/ml incubated for 24 hrs by broth microdilution method; type: functional, organism-based
[12] = system: L929; assay: Cytotoxicity against mouse L929 cells assessed as reduction in cell growth incubated for 5 days by MTT assay; type: functional, cell-based
[13] = system: KB 3-1; assay: Cytotoxicity against human KB3-1 cells assessed as reduction in cell growth incubated for 5 days by MTT assay; type: functional, cell-based
[14] = system: Mycolicibacterium smegmatis; assay: Antibacterial activity against Mycobacterium smegmatis ATCC 700084 at 66 ug/ml incubated for 24 hrs by broth microdilution method; type: functional, organism-based
[15] = system: MCF7; assay: Cytotoxicity against human MCF7 cells assessed as reduction in cell growth incubated for 5 days by MTT assay; type: functional, cell-based
[16] = system: Candida albicans; assay: Antifungal activity against Candida albicans DSM 1665 at 66 ug/ml incubated for 48 hrs by broth microdilution method; type: functional, organism-based
[17] = system: Wickerhamomyces anomalus; assay: Antifungal activity against Pichia anomala DSM 6766 at 66 ug/ml incubated for 48 hrs by broth microdilution method; type: functional, organism-based
[18] = system: Escherichia coli; assay: Antibacterial activity against Escherichia coli DSM 1116 at 66 ug/ml incubated for 24 hrs by broth microdilution method; type: functional, organism-based
[19] = system: Mucor hiemalis; assay: Antifungal activity against Mucor hiemalis DSM 2656 at 66 ug/ml incubated for 48 hrs by broth microdilution method; type: functional, organism-based
[20] = system: Caenorhabditis elegans; assay: Nematicidal activity against Caenorhabditis elegans incubated for 18 hrs; type: functional; details: for LC50: read-out: LD50 (the source's name)
[21] = system: Mucor hiemalis; assay: Antifungal activity against Mucor hiemalis DSM 2656 incubated for 48 hrs by broth microdilution method; type: functional
[22] = system: Schizosaccharomyces pombe; assay: Antifungal activity against Schizosaccharomyces pombe DSM 70572 incubated for 48 hrs by broth microdilution method; type: functional
[23] = system: Candida albicans; assay: Antifungal activity against Candida albicans DSM 1665 incubated for 48 hrs by broth microdilution method; type: functional
[24] = system: Wickerhamomyces anomalus; assay: Antifungal activity against Pichia anomala DSM 6766 incubated for 48 hrs by broth microdilution method; type: functional
[25] = system: Rhodotorula glutinis; assay: Antifungal activity against Rhodotorula glutinis DSM 10134 incubated for 48 hrs by broth microdilution method; type: functional
[26] = system: Bacillus subtilis; assay: Antibacterial activity against Bacillus subtilis DSM 10 incubated for 24 hrs by broth microdilution method; type: functional; details: DSM 10, 24 h
[27] = system: Escherichia coli; assay: Antibacterial activity against Escherichia coli DSM 1116 incubated for 24 hrs by broth microdilution method; type: functional; details: DSM 1116, 24 h
[28] = system: Micrococcus luteus; assay: Antibacterial activity against Micrococcus luteus DSM 1790 incubated for 24 hrs by broth microdilution method; type: functional; details: DSM 1790, 24 h
[29] = system: Chromobacterium violaceum; assay: Antibacterial activity against Chromobacterium violaceum DSM 30191 incubated for 24 hrs by broth microdilution method; type: functional; details: DSM 30191, 24 h
[30] = system: Mycolicibacterium smegmatis; assay: Antibacterial activity against Mycobacterium smegmatis ATCC 700084 incubated for 24 hrs by broth microdilution method; type: functional; details: ATCC 700084, 24 h
[31] = system: Pseudomonas aeruginosa; assay: Antibacterial activity against Pseudomonas aeruginosa DSM PA14 incubated for 24 hrs by broth microdilution method; type: functional, organism-based
[32] = Homo sapiens, KB 3-1, 120 h, read-out: IC50
[33] = Homo sapiens, A-431, 120 h, read-out: IC50
[34] = Homo sapiens, A549, 120 h, read-out: IC50
[35] = Homo sapiens, PC-3, 120 h, read-out: IC50
[36] = Homo sapiens, SK-OV-3, 120 h, read-out: IC50
[37] = Mus musculus, L929, 120 h, read-out: IC50
[38] = Homo sapiens, MCF7, 120 h, read-out: IC50

For `O=C(O)/C=C/C=C1\[C@@H](O)C[C@H](O)C12Oc1cccc3cccc(c13)O2`, the Activity [1] was “inactive”, the IC50 ([2]; a-431) was “Not Active” and the MIC [3] was 66.6 µg/mL (≈ 196 µM). The Activity [4] was “inactive”, the Activity [5] was “inactive” and the IC50 ([6]; a549) was “Not Active”. The IC50 ([7]; pc-3) was “Not Active”, the Activity [8] was “inactive” and the Activity [9] was “inactive”. For the same molecule, the IC50 ([10]; sk-ov-3) was “Not Active”, the Activity [11] was “inactive” and the IC50 ([12]; l929) was “Not Active”. The IC50 ([13]; kb 3-1) was “Not Active”, the Activity [14] was “inactive” and the IC50 ([15]; mcf7) was “Not Active”. The Activity [16] was “inactive”, the Activity [17] was “inactive” and the Activity [18] was “inactive”. The Activity [19] was “inactive” and the LC50 [20] was 50 µg/mL (≈ 147 µM).

For NYSTATIN, the MIC [21] was 4.2 µg/mL, the MIC [22] was 8.3 µg/mL and the MIC [23] was 8.3 µg/mL. It also gave an MIC [24] of 8.3 µg/mL and an MIC [25] of 1 µg/mL.

For `O=C(O)/C=C/C[C@H]1[C@@H](O)C=CC12Oc1cccc3cccc(c13)O2`, the Activity [1] was “inactive”, the IC50 ([2]; a-431) was “Not Active” and the MIC [3] was 66.6 µg/mL (≈ 205 µM). For the same molecule, the Activity [4] was “inactive”, the Activity [5] was “inactive” and the IC50 ([6]; a549) was “Not Active”. The IC50 ([7]; pc-3) was “Not Active”, the Activity [8] was “inactive” and the Activity [9] was “inactive”. The IC50 ([10]; sk-ov-3) was “Not Active”, the Activity [11] was “inactive” and the IC50 ([12]; l929) was “Not Active”. The IC50 [13, 32] was 40100 nM, the Activity [14] was “inactive” and the IC50 ([15]; mcf7) was “Not Active”. For the same molecule, the Activity [16] was “inactive”, the Activity [17] was “inactive” and the Activity [18] was “inactive”. The Activity [19] was “inactive” and the LC50 [20] was 25 µg/mL (≈ 77.1 µM).

`CN(C)[C@@H]1C(=O)C(C(N)=O)=C(O)[C@@]2(O)C(=O)C3=C(O)c4c(O)cccc4[C@@](C)(O)[C@H]3[C@H](O)[C@@H]12.Cl` showed an MIC [3] of 2.1 µg/mL, an MIC [26] of 2.4 µg/mL and an MIC [27] of 33.3 µg/mL. For the same molecule, the MIC [28] was 4.2 µg/mL and the MIC [29] was 4.1 µg/mL.

`NC[C@H]1O[C@H](O[C@H]2[C@H](O)[C@@H](O[C@H]3O[C@H](CO)[C@@H](O)[C@H](N)[C@H]3O)[C@H](N)C[C@@H]2N)[C@H](O)[C@@H](O)[C@@H]1O` [KANAMYCIN] gave an MIC [30] of 4.1 µg/mL (≈ 8.46 µM).

`O=C(O)/C=C/C=C1\[C@@H](O)C=CC12Oc1cccc3cccc(c13)O2` was tested, and the Activity [1] was “inactive”, the IC50 ([2]; a-431) was “Not Active” and the MIC [3] was 66.6 µg/mL (≈ 207 µM). The Activity [4] was “inactive”, the Activity [5] was “inactive” and the IC50 ([6]; a549) was “Not Active”. For the same molecule, the IC50 ([7]; pc-3) was “Not Active”, the Activity [8] was “inactive” and the Activity [9] was “inactive”. For the same molecule, the IC50 ([10]; sk-ov-3) was “Not Active”, the Activity [11] was “inactive” and the IC50 ([12]; l929) was “Not Active”. For the same molecule, the IC50 ([13]; kb 3-1) was “Not Active”, the Activity [14] was “inactive” and the IC50 ([15]; mcf7) was “Not Active”. For the same molecule, the Activity [16] was “inactive”, the Activity [17] was “inactive” and the Activity [18] was “inactive”. The Activity [19] was “inactive” and the LC50 [20] was 50 µg/mL (≈ 155 µM).

Molecule IVERMECTIN has an LD50 [20] of 1 µg/mL.

`C/C(=C\c1csc(C)n1)[C@@H]1C[C@@H]2O[C@]2(C)CCC[C@H](C)[C@H](O)[C@@H](C)C(=O)C(C)(C)[C@@H](O)CC(=O)O1` [PATUPILONE] was tested, and the IC50 [2, 33] was 0.079 nM, the IC50 [6, 34] was 0.069 nM and the IC50 [7, 35] was 1.6 nM. For the same molecule, the IC50 [10, 36] was 0.28 nM, the IC50 [12, 37] was 1.4 nM and the IC50 [13, 32] was 0.089 nM. It also gave an IC50 [15, 38] of 0.24 nM.

In the case of `O=C(O)/C=C/C=C1\C(=O)C=CC12Oc1cccc3cccc(c13)O2`, the IC50 [2, 33] is reported as 200 nM, the MIC [3] is reported as 4.2 µg/mL (≈ 13.1 µM) and the MIC ([21]; DSM 2656, 48 h) is reported as 16.7 µg/mL (≈ 52.1 µM). It also gave an MIC ([22]; DSM 70572, 48 h) of 33.3 µg/mL (≈ 104 µM), an IC50 [6, 34] of 2200 nM and an IC50 [7, 35] of 900 nM. For the same molecule, the MIC [26] was 4.2 µg/mL (≈ 13.1 µM), the Activity [8] was “inactive” and the MIC [28] was 8.3 µg/mL (≈ 25.9 µM). For the same molecule, the MIC ([25]; DSM 10134, 48 h) was 33.3 µg/mL (≈ 104 µM), the IC50 [10, 36] was 600 nM and the Activity [11] was “inactive”. For the same molecule, the IC50 [12, 37] was 600 nM, the IC50 [13, 32] was 800 nM and the Activity [14] was “inactive”. The IC50 [15, 38] was 400 nM, the Activity [16] was “inactive” and the Activity [17] was “inactive”. For the same molecule, the Activity [18] was “inactive” and the LC50 [20] was 50 µg/mL (≈ 156 µM).

Work on GENTAMICIN yielded an MIC [31] of 1 µg/mL.
